Experimental findings from publication PMC2630410 (Molecular and biochemical parasitology, 2008) are described below.

Like-named read-outs stand apart in the source and are kept apart here.

The test system of data set [1] is O=c1[nH]cnc2nc[nH]c12. Description: cells, lysate or membranes. To be noted: other: substrate saturation, 1 min, Δlmant3[pTbNT11.1], n=3.
Data set [2] relates to TbNT12.2. Description: Uptake of adenine and pentamidine by TbNT12.2 expressed in Xenopus oocytes. The conditions noted are these: for Transport by TbNT12.2 (in words): Xenopus oocytes, versus water-injected oocytes. The class given is cell-based, Trypanosoma brucei.
Data set [3] concerns the target TbNT8.1 (Trypanosoma brucei brucei, UniProt Q386F1). The class given is cell-based. To be noted: 12.5 μM [3H]hypoxanthine.
Data set [4] has as its target T1, TbNT12.1 (Trypanosoma brucei brucei, UniProt Q57TQ7).
T1 sequence (Q57TQ7 1-462): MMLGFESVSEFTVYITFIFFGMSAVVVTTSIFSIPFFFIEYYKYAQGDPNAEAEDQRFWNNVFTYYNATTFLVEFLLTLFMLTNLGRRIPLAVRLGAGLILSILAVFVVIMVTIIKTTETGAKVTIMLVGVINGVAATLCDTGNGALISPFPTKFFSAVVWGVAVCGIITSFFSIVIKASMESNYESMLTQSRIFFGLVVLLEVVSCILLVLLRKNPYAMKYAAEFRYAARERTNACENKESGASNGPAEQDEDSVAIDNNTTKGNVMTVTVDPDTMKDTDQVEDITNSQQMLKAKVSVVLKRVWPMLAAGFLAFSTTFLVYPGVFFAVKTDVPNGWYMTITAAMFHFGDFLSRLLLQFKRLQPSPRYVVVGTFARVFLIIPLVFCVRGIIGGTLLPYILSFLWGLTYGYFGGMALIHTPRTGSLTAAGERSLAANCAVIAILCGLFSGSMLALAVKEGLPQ
Description: Uptake of adenine and pentamidine by TbNT12.1 expressed in Xenopus oocytes. The class given is cell-based. To be noted: for Transport by TbNT12.1 (in words): versus water-injected oocytes.

In data set [5] the target is T2, TbNT11.1 (Trypanosoma brucei brucei, UniProt Q38CR7). The class given is cell-based. To be noted: for Inhibition of hypoxanthine uptake by pyrimidine nucleobases: concentrations up to 1 mM; for Inhibition of hypoxanthine uptake by pyrimidine nucleobases / Inhibition of [3H]hypoxanthine uptake by nucleosides: data not shown; for Inhibition of [3H]hypoxanthine uptake by nucleosides: 1 mM nucleoside, Δlmant3[pTbNT11.1] parasites; for Inhibition of [3H]hypoxanthine uptake by TbNT11.1 (in words): 1 μM [3H]hypoxanthine, graded concentrations of inhibitor.

In data set [6] the target is T2, TbNT11.1. In kind it is cell-based. The conditions noted are these: for Inhibition of [14C]pentamidine uptake by unlabeled nucleobase: 1 mM unlabeled substrate, TbNT11-expressing oocytes.
The target of data set [7] is T2, TbNT11.1. Description: Inhibition of [3H]adenine uptake by TbNT11.1 in Δlmant3[pTbNT11.1] parasites. In kind it is cell-based.
Data set [8] deals with PPT1. Description: Inhibition of [14C]pentamidine uptake by PF trypanosomes. The class given is cell-based, Trypanosoma brucei. The conditions noted are these: 1 mM nucleobase, 25 μM [14C]pentamidine; data not shown.
The target of data set [9] is T2, TbNT11.1. The class given is cell-based. The conditions noted are these: for TbNT11.1-mediated uptake of radiolabeled substrate: 1 μM [3H]substrate, Δlmant3[pTbNT11] line.
In data set [10] the test system is Δlmant3 parasites. As to the kind of experiment: Background adenine uptake by Δlmant3 parasites. To be noted: 50 μM adenine. In kind it is cell-based, Leishmania major.
Data set [11] relates to TbNT12.2. As to the kind of experiment: Adenine uptake by TbNT12.2 expressed in Δlmant3 promastigotes. In kind it is cell-based, Trypanosoma brucei. The conditions noted are these: 50 μM adenine, n=3.
In data set [12] the target is T1, TbNT12.1. As to the kind of experiment: Adenine uptake by TbNT12.1 expressed in Δlmant3 promastigotes. In kind it is cell-based. The conditions noted are these: 50 μM adenine, n=3.
Data set [13] has as its target T2, TbNT11.1. In kind it is cell-based. The conditions noted are these: oocytes expressing TbNT11.1; data not shown.
Data set [14] concerns the target T2, TbNT11.1. Description: [3H]adenosine uptake by Δldnt1/Δldnt2[pTbNT11.1] line. In kind it is cell-based. To be noted: 0.5 μM or 100 μM [3H]adenosine; data not shown.
Substrate in data set [15]: N=C(N)c1ccc(OCCCCCOc2ccc(C(=N)N)cc2)cc1
As to the kind of experiment: Uptake of adenine and pentamidine by TbNT12.1 expressed in Xenopus oocytes. In kind it is cell-based, Trypanosoma brucei. The conditions noted are these: other: Xenopus oocytes, n=3; 16.0 °C.

Setting [16] is: transport rates linear from 0–1 mM adenine.

By Km is commonly meant the concentration of substrate that gives half-maximal velocity. A word on the EC50: it is the concentration at which the effect is half-maximal. Low readings indicate an effect from little substance, high ones a need for much substance. The term Ki denotes a measure of affinity in units of concentration, obtained from inhibition or displacement.

As to “TbNT11.1 (Trypanosoma brucei brucei TREU927)”, in data set [1], the Km was 141 µM.
With `N=C(N)c1ccc(OCCCCCOc2ccc(C(=N)N)cc2)cc1` [pentamidine], in data set [2], the “Transport by TbNT12.2 (in words)” value is “also transport”. The “Inhibition of hypoxanthine transport by TbNT8.1” value in data set [3] is “did not significantly inhibit”. In addition, the “Vmax for pentamidine uptake by TbNT12.1” value in [4] (Xenopus oocytes, n=3) came out at 21.8 ± 6.5 pmol/h/oocyte. In addition, the “Transport by TbNT12.1 (in words)” value in [4] (Xenopus oocytes) was “also transport”. Moreover, the EC50 in [5] came to 4.8 µM; in [7] it was 9.6 µM. The “Uptake of [14C]pentamidine by TbNT11.1 cRNA-injected oocytes” value in data set [6] (50 μM [14C]pentamidine, versus water injected oocytes) is on record as “much more rapidly than control water injected oocytes”. For the same molecule, the Km in [6] (read-out: Km for pentamidine uptake by TbNT11.1, Xenopus oocytes, 1 h, n=3) is 407 ± 119 µM.
Regarding `Nc1cc[nH]c(=O)n1` [cytosine], in data set [5], the “Inhibition of hypoxanthine uptake by pyrimidine nucleobases” value is listed as “did not inhibit”.
Consider `O=c1[nH]cnc2nc[nH]c12` [hypoxanthine], for which the “Transport by TbNT12.2 (in words)” value in data set [2] is recorded as “did not mediate the uptake”. Further, the “Inhibition of [14C]pentamidine uptake by PFs” value (shortened to “Inhibition … by PFs”) in data set [8] is given as “did not inhibit”. The “TbNT11.1-mediated uptake of radiolabeled substrate” value (shortened to “TbNT11.1-mediated uptake”) in data set [9] was “mediated uptake”. Further, the “Transport by TbNT12.1 (in words)” value in [4] (Xenopus oocytes) is “did not mediate the uptake”. Moreover, the “Inhibition of [14C]pentamidine uptake by unlabeled nucleobase” value (“Inhibition … by unlabeled nucleobase” below) in data set [6] (50 μM [14C]pentamidine) is “partially inhibited”.
In the case of `Nc1nc2c(ncn2[C@@H]2O[C@H](CO)[C@@H](O)[C@H]2O)c(=O)[nH]1` [guanosine], the “Inhibition of [3H]hypoxanthine uptake by nucleosides” value (from here on “Inhibition … by nucleosides”) in data set [5] is listed as “failure”.
Regarding `OC[C@H]1O[C@@H](n2cnc3c(O)nc(O)nc32)[C@H](O)[C@@H]1O` [xanthosine], the “Inhibition … by nucleosides” value in [5] was “failure”.
`O=c1[nH]c(=O)c2nc[nH]c2[nH]1` [xanthine]: the “Transport by TbNT12.2 (in words)” value in [2] is recorded as “did not mediate the uptake”. Besides, in data set [9], the “TbNT11.1-mediated uptake” value is recorded as “mediated uptake”. Moreover, the Km in data set [9] (read-out: Km for uptake by TbNT11.1, substrate saturation, 1 min, Δlmant3[pTbNT11.1], n=3) came out at 7.2 ± 2.3 µM. For the same molecule, the “Transport by TbNT12.1 (in words)” value in data set [4] (Xenopus oocytes) is reported as “did not mediate the uptake”. In data set [6] (50 μM [14C]pentamidine), the “Inhibition … by unlabeled nucleobase” value is listed as “partially inhibited”.
Regarding `Nc1nc2nc[nH]c2c(=O)[nH]1` [guanine], in data set [2], the “Transport by TbNT12.2 (in words)” value was “did not mediate the uptake”. Also, the “Inhibition … by PFs” value in [8] is listed as “did not inhibit”. For the same molecule, the “TbNT11.1-mediated uptake” value in data set [9] is on record as “not a substrate”. Moreover, the “Transport by TbNT12.1 (in words)” value in [4] (Xenopus oocytes) is listed as “did not mediate the uptake”. Moreover, the “Inhibition of [3H]hypoxanthine uptake by TbNT11.1 (in words)” value in data set [5] is reported as “an inhibitor”.
As for `O=c1cc[nH]c(=O)[nH]1` [uracil], in [5], the “Inhibition of hypoxanthine uptake by pyrimidine nucleobases” value is on record as “did not inhibit”.
Consider `O=c1[nH]cnc2c1ncn2[C@@H]1O[C@H](CO)[C@@H](O)[C@H]1O` [inosine], for which the “Inhibition … by nucleosides” value in [5] is “failure”.
For the molecule `Nc1ncnc2[nH]cnc12` [adenine], the “Transport by TbNT12.2 (in words)” value in data set [2] is “transport”. Moreover, in data set [2] (setting [16]), the “Affinity of TbNT12.2 for substrate” value is recorded as “low”. For the same molecule, the “Inhibition … by PFs” value in data set [8] is “did not inhibit”. Moreover, in data set [10], the “Background uptake of adenine in Δlmant3 parasites” value is recorded as 41.8 ± 1.4 pmol/min/10^7 parasites. Also, in data set [9], the “TbNT11.1-mediated uptake” value is recorded as “mediated uptake”. Also, the “Uptake of adenine, TbNT12.2 in Δlmant3 promastigotes” value in data set [11] is 86.5 ± 1.1 pmol/min/10^7 parasites. For the same molecule, the “Uptake of adenine, TbNT12.1 in Δlmant3 promastigotes” value in data set [12] was found to be 103 ± 2 pmol/min/10^7 parasites. For the same molecule, in [4] (Xenopus oocytes), the “Transport by TbNT12.1 (in words)” value is “transport”. For the same molecule, the “Affinity of TbNT12.1 for substrate” value in data set [4] (setting [16]) is on record as “low”. This molecule showed a Ki in data set [5] of 8 µM. The “Inhibition … by unlabeled nucleobase” value in data set [6] (50 μM [14C]pentamidine) is on record as “very poor inhibitor”.
For `Nc1nc(N)nc(Nc2ccc([As]3SCC(CO)S3)cc2)n1` (centres unmarked) [melarsoprol], the “Melarsoprol uptake over background of water injected oocytes” value in data set [13] is listed as “no uptake”. Moreover, the midpoint of the response in [7], the EC50, lay at 12.9 µM.
With `Oc1ncnc2[nH]ncc12` [allopurinol, 4-hydroxypyrazolo[3,4-d]-pyrimidine-4-one], the “TbNT11.1-mediated uptake” value in data set [9] is “promoted uptake”. Besides, in data set [5], the affinity, expressed as Ki, was 67 µM.
In the case of `Nc1ncnc2c1ncn2[C@@H]1O[C@H](CO)[C@@H](O)[C@H]1O` [adenosine], the “Uptake of [3H]adenosine” value in data set [14] is listed as “did not take up”. For the same molecule, the “Inhibition of [3H]hypoxanthine uptake by TbNT11.1 (in words)” value in data set [5] is listed as “an inhibitor”.

B1: TbNT12.1 (Trypanosoma brucei brucei TREU927) (protein)
chain: T1 sequence (Q57TQ7 1-462)
In the case of B1, the Km in [15] stood at 161 ± 8 µM.
